Reference: ChEMBL document CHEMBL1147226, “dd-diketopiperazines: antibiotics active against Vibrio anguillarum isolated from marine bacteria associated with cultures of Pecten maximus” (2003)
Values after ≈ are worked out from the molar mass of the structure shown.

Tested on: Vibrio anguillarum
Test: Antimicrobial activity against Vibrio anguillarum after 24 to 48 hrs
Assay type: functional

Row | Structure (SMILES) | MIC [µg/mL]
1 | CC[C@@H](C)[C@H]1NC(=O)[C@@H]2CCCN2C1=O | 0.11 (≈ 0.523 µM)
2 | CC(C)[C@H]1NC(=O)[C@H]2CCCN2C1=O | 0.05 (≈ 0.255 µM)
3 | CC(C)[C@@H]1NC(=O)[C@H]2CCCN2C1=O | 0.11 (≈ 0.561 µM)
4 | O=C1N[C@H](Cc2ccccc2)C(=O)N2CCC[C@@H]12 | 0.13 (≈ 0.532 µM)
5 | O=C1N[C@@H](Cc2ccccc2)C(=O)N2CCC[C@H]12 | 0.1 (≈ 0.409 µM)
6 | O=C1N[C@H](Cc2ccccc2)C(=O)N2C[C@H](O)C[C@H]12 | 0.07 (≈ 0.269 µM)
7 | CC[C@@H](C)[C@H]1NC(=O)[C@H]2CCCN2C1=O | 0.05 (≈ 0.238 µM)
8 | CC[C@@H](C)[C@@H]1NC(=O)[C@H]2CCCN2C1=O | 0.12 (≈ 0.571 µM)
9 | CC(C)C[C@H]1NC(=O)[C@@H](Cc2cnc[nH]2)NC1=O | 0.07 (≈ 0.28 µM)
10 | CC(C)C[C@H]1NC(=O)[C@H]2CCCN2C1=O | 0.04 (≈ 0.19 µM)

Further compounds by falling MIC, results first:

Row | MIC [µg/mL] | Structure (SMILES)
11 | 0.14 (≈ 0.713 µM) | CC(C)[C@H]1NC(=O)[C@@H]2CCCN2C1=O
12 | 0.13 (≈ 0.618 µM) | CC(C)C[C@@H]1NC(=O)[C@H]2CCCN2C1=O
13 | 0.12 (≈ 0.571 µM) | CC(C)C[C@H]1NC(=O)[C@@H]2CCCN2C1=O
14 | 0.05 (≈ 0.236 µM) | CC(C)C[C@H]1NC(=O)[C@@H](C(C)C)NC1=O
15 | 0.03 (≈ 0.123 µM) | O=C1N[C@H](Cc2ccccc2)C(=O)N2CCC[C@H]12
